Reference: article PMC7400437, “Synthesis and Evaluation of the Antibacterial Activities of 13-Substituted Berberine Derivatives” (Antibiotics, 2020)
Read-outs that look alike come from different tables or passages of the source.

Experiments:
[1] = tested on: B. subtilis; assay: MIC, antimicrobial activity assay; format: cell-based, Bacillus subtilis (ATCC 6633); conditions: Bacillus subtilis
[2] = tested on: M. smegmatis; assay: microbe, parasite or virus in culture; format: cell-based, Mycobacterium smegmatis (mc2155, ATCC 700084); conditions: Mycolicibacterium smegmatis, 72 h, read-out: Minimal Inhibitory Concentration (MIC) M. smegmatis
[3] = tested on: P. aeruginosa; assay: MIC, antimicrobial activity assay; format: cell-based, Pseudomonas aeruginosa (ATCC 9027); conditions: Pseudomonas aeruginosa
[4] = tested on: C. albicans; assay: MIC, antifungal activity assay; format: cell-based, Candida albicans (DSM 10697); conditions: Candida albicans; Table 1 first screening; 35 °C, 24 h; read-out: Minimal Inhibitory Concentration (MIC) C. albicans
[5] = tested on: Caco2 (human intestinal epithelial cells); assay: Cytotoxic assay on human cells (resazurin); format: cell-based; conditions: for IC50: Homo sapiens, Caco-2, 48 h, read-out: Inhibitory Concentration 50 (IC50) on cell viability, Caco2
Description: (§1) The toxicity of berberine and berberine’s derivatives on human cells was evaluated using resazurin assay as previously described. Human cells used were BEAS (ATCC CRL-9609), Caco2 (ATCC HTB-37) and HepG2 (ATCC HB-8065) corresponding respectively to human airway epithelial cells, intestinal epithelial cells and liver cells. Cells were cultured in Dulbecco’s modified essential medium (DMEM) supplemented with 10% fetal bovine serum (FBS), 1% L-glutamine and 1% antibiotics (Thermo Fisher Scientific, Illkirch-Graffenstaden, France). Cells were routinely grown on 25 cm^2 flasks and maintained in a 5% CO2 incubator at 37 °C. For toxicity assay, cells were detached using trypsin–EDTA solution (Thermo Fisher Scientific), counted using Mallasez counting chamber and seeded into 96-well cell culture plates (Greiner bio-One, Dominique Dutscher, Brumath, France) at approximately 10,000 cells per well. The cells were left to grow for 48–72 h at 37 °C in a 5% CO2 incubator until they reached confluence. Media from wells was then aspirated and cells were treated with 100 µL of culture media containing increasing concentrations of berberine or berberine’s derivatives obtained by serial dilution (from 0 to 50 µM, 1:2 dilution), DMSO (0.5% DMSO final concentration) was used as negative control. After 48 h incubation at 37 °C in a 5% CO2 incubator, cell viability was evaluated using resazurin based in vitro toxicity assay kit (Sigma-Aldrich) following manufacturer’s instructions. Briefly, cell wells were emptied, and cells were treated with 100 µL of resazurin diluted 1:10 in sterile PBS containing calcium and magnesium (PBS^++, pH 7.4). After 4 h incubation at 37 °C, fluorescence intensity (excitation wavelength of 530 nm/emission wavelength of 590 nm) was measured using Synergy Mx microplate reader (Biotek). The fluorescence values were normalized by the controls (DMSO treated cells) and expressed as percent viability. The IC50 values of berberine and berberine’s derivatives on cell viability (i.e., the concentration of derivative causing a reduction of 50% of the cell viability) were calculated using GraphPad® Prism 7 software (San Diego, CA, USA). t-Test and two ways ANOVA analyses were used to address the significant differences between mean values with significance set at p < 0.05.

[6] = tested on: BEAS (human airway epithelial cells); assay: Cytotoxic assay on human cells (resazurin); format: cell-based; conditions: Epithelial cell, 48 h, means +/−SD, read-out: Inhibitory Concentration 50 (IC50) on cell viability, BEAS
Description: as §1

[7] = tested on: HepG2 (human liver cells); assay: Cytotoxic assay on human cells (resazurin); format: cell-based; conditions: HepG2, 48 h, read-out: Inhibitory Concentration 50 (IC50) on cell viability, HEPG2
Description: as §1

[8] = tested on: E. coli; assay: MIC, antimicrobial activity assay; format: cell-based, Escherichia coli (ATCC 8739); conditions: Escherichia coli
[9] = tested on: S. aureus; assay: MIC, antimicrobial activity assay; format: cell-based, Staphylococcus aureus (ATCC 6538P); conditions: Staphylococcus aureus
[10] = tested on: selected relevant microorganisms; assay: Antimicrobial activity, overall statement (active/inactive); format: cell-based
[11] = tested on: bacterial membrane integrity; assay: Bacterial membrane permeabilization assay (propidium iodide), strain not specified; format: cell-based; conditions: data not shown
Description: Membrane permeabilization by berberine derivatives was evaluated using the cell-impermeable DNA/RNA probe propidium iodide as previously explained. Logarithmic growing bacterial suspensions were prepared from overnight bacterial suspension by 1 in 10 dilution. After 3 h incubation at 37 °C, 200 rpm, bacterial suspensions were centrifuged for 5 min at 3000 rpm. Cell pellets were then resuspended in sterile PBS at about 10^9 cells/mL. Propidium iodide (Sigma Aldrich) was then added to the suspension at a final concentration of 60 µM. 100 µL of this suspension were then transferred into 96-well black plates (Dominique Dutscher) and exposed to increasing concentrations of berberine’s derivative (from 0 to 100 µM, 1:2 dilution). […] All steps of the assay were performed in aerobic condition except for H. pylori which was done in microaerobic condition generated with GasPak unit (Sigma Aldrich). Bacteria were incubated at 37 °C and the kinetics of fluorescence variations (excitation at 530 nm and emission at 590 nm) were then recorded over time using a Synergy Mx microplate reader (Biotek). Cetyl trimethylammonium bromide (CTAB) at 300 µM was used as positive control giving 100% permeabilization. Results were expressed in % of permeabilization. All experiments were done in triplicate.

[12] = tested on: H. pylori; assay: MIC, antimicrobial activity assay; format: cell-based, Helicobacter pylori (ATCC 43504); conditions: Helicobacter pylori; Table 4, Gram-negative; microaerobic
[13] = tested on: L. lactis; assay: MIC, antimicrobial activity assay; format: cell-based, Lactococcus lactis (DSM 20481); conditions: Lactococcus lactis; Table 4, Gram-positive
[14] = tested on: K. pneumonia; assay: MIC, antimicrobial activity assay; format: cell-based, Klebsiella pneumoniae (DSMZ 26371); conditions: Klebsiella pneumoniae; Table 4, Gram-negative
[15] = tested on: A. baumannii; assay: MIC, antimicrobial activity assay; format: cell-based, Acinetobacter baumannii (CIP 110431); conditions: Acinetobacter baumannii; Table 4, Gram-negative
[16] = tested on: B. subtilis (Nisin-resistant); assay: MIC, antimicrobial activity assay; format: cell-based, nisin-resistant B. subtilis (DSMZ 347); conditions: Bacillus subtilis, read-out: MIC B. subtilis (Nisin-resistant)
[17] = tested on: B. cereus; assay: MIC, antimicrobial activity assay; format: cell-based; conditions: Bacillus cereus; Table 4, Gram-positive
[18] = tested on: S. enterica; assay: MIC, antimicrobial activity assay; format: cell-based, Salmonella enterica (CIP 80.39); conditions: Salmonella enterica; Table 4, Gram-negative
[19] = tested on: V. alginolyticus; assay: MIC, antimicrobial activity assay; format: cell-based, Vibrio alginolyticus (DSM 2171); conditions: Vibrio alginolyticus; Table 4, Gram-negative
[20] = tested on: C. perfringens; assay: microbe, parasite or virus in culture; format: cell-based, Clostridium perfringens (ATCC 13124); conditions: Clostridium perfringens, read-out: MIC C. perfringens
[21] = tested on: S. flexneri; assay: MIC, antimicrobial activity assay; format: cell-based, Shigella flexneri (ATCC 12022); conditions: Shigella flexneri; Table 4, Gram-negative
[22] = tested on: E. faecalis (Vancomycin-resistant); assay: MIC, antimicrobial activity assay; format: cell-based, vancomycin-resistant Enterococcus faecalis (DSMZ 13591); conditions: Enterococcus faecalis, read-out: MIC E. faecalis (Vancomycin-resistant)
[23] = tested on: S. pyogenes; assay: MIC, antimicrobial activity assay; format: cell-based, Streptococcus pyogenes (DSM 20565); conditions: Streptococcus pyogenes; Table 4, Gram-positive; anaerobic
[24] = tested on: C. rodentium; assay: MIC, antimicrobial activity assay; format: cell-based, Citrobacter rodentium (ATCC 51116); conditions: Citrobacter rodentium; Table 4, Gram-negative
[25] = tested on: C. farmer; assay: MIC, antimicrobial activity assay; format: cell-based, Citrobacter farmeri (ATCC 51633); conditions: Citrobacter farmeri; Table 4, Gram-negative
[26] = tested on: V. diabolicus; assay: MIC, antimicrobial activity assay; format: cell-based; conditions: Vibrio diabolicus; Table 4, Gram-negative
[27] = tested on: A. gandavensis; assay: MIC, antimicrobial activity assay; format: cell-based, Arthrobacter gandavensis (DSM 2447); conditions: Arthrobacter gandavensis; Table 4, Gram-positive
[28] = tested on: S.aureus (Methicillin-resistant); assay: MIC, antimicrobial activity assay; format: cell-based; conditions: Staphylococcus aureus, read-out: MIC S.aureus (Methicillin-resistant)
[29] = tested on: C. difficile; assay: MIC, antimicrobial activity assay; format: cell-based, Clostridium difficile (DSM 1296); conditions: Clostridioides difficile; Table 4, Gram-positive; anaerobic
[30] = tested on: P. aeruginosa (Quinolone-resistant); assay: MIC, antimicrobial activity assay; format: cell-based; conditions: Pseudomonas aeruginosa, read-out: MIC P. aeruginosa (Quinolone-resistant)
[31] = Table 1 first screening, read-out: Minimal Inhibitory Concentration (MIC) B. subtilis
[32] = Table 1 first screening, read-out: Minimal Inhibitory Concentration (MIC) P. aeruginosa
[33] = Table 1 first screening, read-out: Minimal Inhibitory Concentration (MIC) E. coli
[34] = Table 1 first screening, read-out: Minimal Inhibitory Concentration (MIC) S. aureus

COc1ccc2cc3[n+](cc2c1OC)CCc1cc2c(cc1-3)OCO2 [Berberine]
MIC [1, 31]: > 100 µM
MIC [2]: 100 µM
MIC [3, 32]: > 100 µM
MIC [4]: 100 µM
IC50 [5]: 21.6 ± 2.7 µM
IC50 [6]: 40.5 ± 5.4 µM
IC50 [7]: > 50 µM
MIC [8, 33]: > 100 µM
MIC [9, 34]: > 100 µM
antimicrobial activity (active/inactive) [10]: low to no antimicrobial activity

COc1cc(Cc2c3[n+](cc4c(OC)c(OC)ccc24)CCc2cc4c(cc2-3)OCO4)cc(OC)c1OC [Compound 15, 13[(3,4,5-Trimethoxyphenyl)methyl]Berberine]
MIC [1, 31]: > 100 µM
MIC [2]: 50 µM
membrane permeabilization (inactive derivatives) [11]: low to no membrane permeabilization
MIC [3, 32]: > 100 µM
MIC [4]: > 100 µM
MIC [8, 33]: > 100 µM
MIC [9, 34]: 100 µM
antimicrobial activity (active/inactive) [10]: No Activity

COc1ccc2c(Cc3ccc(F)cc3)c3[n+](cc2c1OC)CCc1cc2c(cc1-3)OCO2 [Compound 6, 13-(4-Fluorobenzyl)Berberine]
MIC [1, 31]: 50 µM
MIC [2]: 25 µM
MIC [3, 32]: > 100 µM
MIC [4]: > 100 µM
IC50 [5]: 36.9 ± 4.3 µM
IC50 [6]: > 50 µM
IC50 [7]: > 50 µM
MIC [8, 33]: > 100 µM
melting point: 238 °C
MIC [9, 34]: 12.5 to 25 µM

CCOC(=O)Cc1c2[n+](cc3c(OC)c(OC)ccc13)CCc1cc3c(cc1-2)OCO3 [Compound 4, 13-(Acetic Acid Ethylester) Berberine]
MIC [1, 31]: > 100 µM
MIC [2]: 100 µM
MIC [3, 32]: > 100 µM
MIC [4]: > 100 µM
MIC [8, 33]: > 100 µM
melting point: 216 °C
MIC [9, 34]: > 100 µM

COc1ccc2c(Cc3ccc(/C=C/C(=O)NCCc4ccc(S(N)(=O)=O)cc4)cc3)c3[n+](cc2c1OC)CCc1cc2c(cc1-3)OCO2 [Compound 23, (2E)-3-{4-[(Berberin-13-yl)methyl]phenyl}-N-[2-(4-sulfamoylphenyl)ethyl]prop-2-enamide]
MIC [12]: 6.25 µM
MIC [1, 31]: 25 µM
MIC ([1]; Table 4, Gram-positive, read-out: MIC B. subtilis): 25 µM
MIC [13]: 6.25 µM
MIC [2]: 25 µM
MIC [3, 32]: > 100 µM
MIC ([3]; Table 4, Gram-negative, read-out: MIC P. aeruginosa): > 100 µM
MIC [14]: > 100 µM
MIC [15]: > 100 µM
MIC [16]: 25 µM
MIC [17]: 12.5 µM
MIC [18]: > 100 µM
MIC [4]: 100 µM
MIC [19]: 6.25 µM
IC50 [5]: > 50 µM
therapeutic index Caco2 ([5]; IC50 on Caco2 divided by MIC on S. aureus): 12.40
IC50 [6]: > 50 µM
IC50 [7]: > 50 µM
MIC [20]: 50 µM
MIC [21]: > 100 µM
MIC [22]: 100 µM
MIC [23]: 6.25 µM
MIC [8, 33]: > 100 µM
MIC ([8]; Table 4, Gram-negative, read-out: MIC E. coli): > 100 µM
MIC [24]: > 100 µM
MIC [25]: > 100 µM
MIC [26]: > 100 µM
MIC [27]: 50 µM
MIC [28]: 12.5 µM
MIC [9, 34]: 6.25 µM
MIC ([9]; Table 4, Gram-positive, read-out: MIC S. aureus): 6.25 µM
MIC [29]: 50 µM
MIC [30]: > 100 µM

COc1ccc2c(Cc3ccc(/C=C/C(=O)c4cc(NC(C)=O)ccc4O)cc3)c3[n+](cc2c1OC)CCc1cc2c(cc1-3)OCO2 [Compound 24, N-{3-[(2E)-3-{4-[(Berberin-13-yl)methyl]phenyl}prop-2-enoyl]-4-hydroxyphenyl}acetamide]
MIC [1, 31]: 100 µM
MIC [2]: 25 µM
membrane permeabilization (inactive derivatives) [11]: low to no membrane permeabilization
MIC [3, 32]: > 100 µM
MIC [4]: > 100 µM
MIC [8, 33]: > 100 µM
MIC [9, 34]: 50 to 100 µM
antimicrobial activity (active/inactive) [10]: No Activity
